Measured values: patent publication US12286442B2, “Methods and materials for increasing transcription factor eb polypeptide levels” (University of Pittsburgh—Of the Commonwealth System of …, priority 2019, dated 2025)

Key:
TFEB = assay: High content screen measuring TFEB nuclear accumulation (TFEB nuclear/cytosol ratio) in BEAS-2B cells stably expressing TFEB-EGFP; assay type: cell-based, human; conditions: 18 hours incubation
How it was run: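 Readout: lowest compound concentration giving a 25% rise in nuclear/cytosol TFEB-GFP ratio, from DAPI-masked nuclear and mask-expanded cytosolic signals. Cells (BEAS-2B, TFEB-EGFP stable, ~2300–2500/well) rested 8 hours, then treated 18 hours with compound serial dilutions in 2% FBS medium before PFA fixation and DAPI staining.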

BEAS-2B cells = assay: Toxicity: compound concentration needed to induce greater than 50 percent of cell loss; assay type: cell-based, human; conditions: 18 hours incubation
How it was run: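 Reported value is the concentration giving greater than 50 percent cell loss, grouped into bins (≥25 μM; between 1 and 25 μM; ≤1 μM as "+++"). Measured by high-content imaging of DAPI-stained BEAS-2B TFEB-EGFP cells fixed after 18 h compound exposure.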

Row | SMILES | efficacy (minimal compound concentration needed to increase TFEB nuclear/cytosol ratio by 25%) (TFEB) | toxicity (compound concentration needed to induce greater than 50 percent of cell loss) (BEAS-2B cells)
1 | c1cnc2nc(-c3ccncc3)nc(Nc3ccc4[nH]ncc4c3)c2c1 [Compound 80] | ++ (“++” equals between ≤25 μM and >1 μM) | + (cell loss of greater than 50 percent at a concentration that equals or is greater than 25 μM was represented as)
2 | c1cnc2nc(-c3ccncc3)nc(Nc3ccc4[nH]ccc4c3)c2c1 [Compound 81] | +++ (“+++” equals ≤1 μM) | ++ (cell loss of greater than 50 percent at a concentration less than 25 μM and greater than 1 μM was represented as)
3 | Fc1cccc(Nc2nc(-c3ccncc3)nc3ncccc23)c1 [Compound 82] | +++ (“+++” equals ≤1 μM) | + (cell loss of greater than 50 percent at a concentration that equals or is greater than 25 μM was represented as)
4 | c1cnc2c(Nc3ccc4[nH]ccc4c3)nc(-c3ccncc3)nc2c1 [Compound 83] | ++ (“++” equals between ≤25 μM and >1 μM) | + (cell loss of greater than 50 percent at a concentration that equals or is greater than 25 μM was represented as)
5 | c1cc(-c2nc(Nc3ccc4[nH]ccc4c3)c3cnccc3n2)ccn1 [Compound 84] | +++ (“+++” equals ≤1 μM) | + (cell loss of greater than 50 percent at a concentration that equals or is greater than 25 μM was represented as)
6 | c1cc(-c2nc(Nc3ccc4[nH]ncc4c3)c3cnccc3n2)ccn1 [Compound 85] | +++ (“+++” equals ≤1 μM) | + (cell loss of greater than 50 percent at a concentration that equals or is greater than 25 μM was represented as)
7 | Cc1nc2cc(C)c(Nc3nc(-c4ccncc4)nc4ccccc34)cc2s1 [Compound 86] | +++ (“+++” equals ≤1 μM) | +++ (cell loss of greater than 50 percent at a concentration that equals or is less than 1 μM was represented as “+++.”)
8 | N#Cc1nc2ccc(Nc3nc(-c4ccncc4)nc4ccccc34)cc2s1 [Compound 87] | + (“+” equals >25 μM) | + (cell loss of greater than 50 percent at a concentration that equals or is greater than 25 μM was represented as)
9 | CC(C)(C)OC(=O)N1CC=C(c2nc(Nc3ccc4[nH]ccc4c3)c3ccccc3n2)CC1 [Compound 88] | + (“+” equals >25 μM) | + (cell loss of greater than 50 percent at a concentration that equals or is greater than 25 μM was represented as)
10 | c1ccc2c(Nc3ccc4[nH]ncc4c3)nc(-c3cc[nH]c3)nc2c1 [Compound 89] | ++ (“++” equals between ≤25 μM and >1 μM) | ++ (cell loss of greater than 50 percent at a concentration less than 25 μM and greater than 1 μM was represented as)
11 | CCc1nc2ccc(Nc3nc(-c4ccncc4)nc4ccccc34)cc2s1 [Compound 90] | +++ (“+++” equals ≤1 μM) | + (cell loss of greater than 50 percent at a concentration that equals or is greater than 25 μM was represented as)
12 | c1ccc2c(Nc3ccc4nc(C5CC5)sc4c3)nc(-c3ccncc3)nc2c1 [Compound 91] | +++ (“+++” equals ≤1 μM) | + (cell loss of greater than 50 percent at a concentration that equals or is greater than 25 μM was represented as)
13 | FC(F)c1nc2ccc(Nc3nc(-c4ccncc4)nc4ccccc34)cc2s1 [Compound 92] | ++ (“++” equals between ≤25 μM and >1 μM) | + (cell loss of greater than 50 percent at a concentration that equals or is greater than 25 μM was represented as)
14 | CC(C)(C)c1nc2ccc(Nc3nc(-c4ccncc4)nc4ccccc34)cc2s1 [Compound 93] | + (“+” equals >25 μM) | + (cell loss of greater than 50 percent at a concentration that equals or is greater than 25 μM was represented as)
15 | CC(C)c1nc2ccc(Nc3nc(-c4ccncc4)nc4ccccc34)cc2s1 [Compound 94] | +++ (“+++” equals ≤1 μM) | + (cell loss of greater than 50 percent at a concentration that equals or is greater than 25 μM was represented as)
16 | Cc1nc2cc(Nc3nc(-c4ccncc4)nc4ccccc34)ccc2s1 [Compound 95] | + (“+” equals >25 μM) | + (cell loss of greater than 50 percent at a concentration that equals or is greater than 25 μM was represented as)
17 | FC(F)(F)c1nc2ccc(Nc3nc(-c4ccncc4)nc4ccccc34)cc2o1 [Compound 96] | + (“+” equals >25 μM) | + (cell loss of greater than 50 percent at a concentration that equals or is greater than 25 μM was represented as)
18 | c1ccc2c(Nc3cccc4[nH]ccc34)nc(-c3ccncc3)nc2c1 [Compound 97] | +++ (“+++” equals ≤1 μM) | + (cell loss of greater than 50 percent at a concentration that equals or is greater than 25 μM was represented as)
19 | c1cc(Nc2nc(-c3ccncc3)nc3ccccc23)c2[nH]ccc2c1 [Compound 98] | +++ (“+++” equals ≤1 μM) | + (cell loss of greater than 50 percent at a concentration that equals or is greater than 25 μM was represented as)
20 | c1ccc2c(Nc3cccc4[nH]ncc34)nc(-c3ccncc3)nc2c1 [Compound 99] | +++ (“+++” equals ≤1 μM) | + (cell loss of greater than 50 percent at a concentration that equals or is greater than 25 μM was represented as)
21 | c1cc(Nc2nc(-c3ccncc3)nc3ccccc23)c2[nH]ncc2c1 [Compound 100] | + (“+” equals >25 μM) | + (cell loss of greater than 50 percent at a concentration that equals or is greater than 25 μM was represented as)
22 | c1ccc2c(Nc3cccc4[nH]nnc34)nc(-c3ccncc3)nc2c1 [Compound 101] | + (“+” equals >25 μM) | + (cell loss of greater than 50 percent at a concentration that equals or is greater than 25 μM was represented as)
23 | c1ccc2c(Nc3ccc4ncncc4c3)nc(-c3ccncc3)nc2c1 [Compound 102] | +++ (“+++” equals ≤1 μM) | + (cell loss of greater than 50 percent at a concentration that equals or is greater than 25 μM was represented as)
24 | c1ccc2c(Nc3ccc4nccnc4c3)nc(-c3ccncc3)nc2c1 [Compound 103] | +++ (“+++” equals ≤1 μM) | + (cell loss of greater than 50 percent at a concentration that equals or is greater than 25 μM was represented as)
25 | c1ccc2c(Nc3ccc4[nH]ccc4c3)nc(-c3cc[nH]c3)nc2c1 [Compound 104] | +++ (“+++” equals ≤1 μM) | + (cell loss of greater than 50 percent at a concentration that equals or is greater than 25 μM was represented as)
26 | c1cnc2ccc(Nc3nc(-c4cncs4)nc4ccccc34)cc2c1 [Compound 106] | + (“+” equals >25 μM) | + (cell loss of greater than 50 percent at a concentration that equals or is greater than 25 μM was represented as)
27 | c1ccc2c(Nc3ccc4ncsc4c3)nc(-c3cncs3)nc2c1 [Compound 107] | + (“+” equals >25 μM) | + (cell loss of greater than 50 percent at a concentration that equals or is greater than 25 μM was represented as)
28 | Fc1cccc2c(Nc3ccc4[nH]ccc4c3)nc(-c3ccncc3)nc12 [Compound 108] | +++ (“+++” equals ≤1 μM) | + (cell loss of greater than 50 percent at a concentration that equals or is greater than 25 μM was represented as)
29 | COc1cccc2nc(-c3ccncc3)nc(Nc3ccc4[nH]ccc4c3)c12 [Compound 109] | +++ (“+++” equals ≤1 μM) | + (cell loss of greater than 50 percent at a concentration that equals or is greater than 25 μM was represented as)
30 | Fc1ccc2nc(-c3ccncc3)nc(Nc3ccc4[nH]ccc4c3)c2c1 [Compound 110] | +++ (“+++” equals ≤1 μM) | + (cell loss of greater than 50 percent at a concentration that equals or is greater than 25 μM was represented as)
